The values below are quoted from earlier work in patent publication US20120142645A1, “NEUROACTIVE STEROID COMPOSITIONS AND METHODS OF USE FOR LOWERING CHOLESTEROL” (priority 2009, published 2012).

In the data set the test system is acute moderate to severe traumatic brain injury. As to conditions: intravenous for three days; Wright et al., 2007; cited from earlier work.

Regarding `CC(=O)[C@H]1CC[C@H]2[C@@H]3CCC4=CC(=O)CC[C@]4(C)[C@H]3CC[C@]12C` [progesterone], the “Reduction of 30-day mortality rates” value is recorded as “over 50%”.
